Test results taken from ChEMBL document CHEMBL5726927, “Heterocyclic derivatives as modulators of kinase activity” (2019).

Assay: P70S6K Enzyme Assay: P70S6K inhibitor compounds were diluted and plated in 96 well plates. A reaction mixture including the following components was then added to the compound plate to initiate the enzyme reaction; P70S6K (3 nM, T412E mutant, Millipore) was mixed with 24 μM ATP in an assay buffer containing 100 mM Hepes (pH 7.5), 5 mM MgCl2, 1 mM DTT, 0.015% Brij and 1 μM of the substrate peptide FITC-AHA-AKRRRLSSLRA-OH (derived from the S6 ribosomal protein sequence, FITC=fluorescein isothiocyanate, AHA=6-aminohexanoic acid). The reaction was incubated for 90 min at 25° C., before the addition of 10 mM EDTA to stop the reaction. The proportion of substrate and product (phosphorylated) peptide was analysed on a Caliper Life Sciences Lab Chip 3000, using a pressure of −1.4 psi, and upstream and downstream voltages of −3000 and −700 respectively. Product peaks were resolved before substrate peaks on the resulting chromatograms.

SMILES: O=C1CNc2ncnc(N3CCN(C(CN4CCCC4)c4ccc(F)c(Cl)c4)CC3)c2N1 (stereo unspecified)
- IC50: > 1000 nM
